Test results from the supplement of paper PMC10307832.

Tests used:
Test in all cases: relative viability (nuclei count vs DMSO), 5 days (fraction); higher = more cells survive
NCI-H1792 = system: NCI-H1792
Method in brief: (§1)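 One day after seeding in 1536-well plates, lung cancer cell lines were dosed by pin tool. Dosing was either single-drug or a fixed anchor-drug dose plus five library-drug doses (not always all listed) in √10 steps. After 5 days, nuclei were stained in one fix-and-stain step and counted on 4× images, and relative viability is the nuclei count of treated wells over that of vehicle wells, given as the median of duplicate plates.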

NCI-H1915 = system: NCI-H1915
Method in brief: as §1

NCI-H2085 = system: NCI-H2085
Method in brief: as §1

NCI-H2170 = system: NCI-H2170
Method in brief: as §1

NCI-H1944 = system: NCI-H1944
Method in brief: as §1

HCC-366 = system: HCC-366
Method in brief: as §1

LC-2-ad = system: LC-2-ad
Method in brief: as §1

A-427 = system: A-427
Method in brief: as §1

HCC-78 = system: HCC-78
Method in brief: as §1

SK-LU-1 = system: SK-LU-1
Method in brief: as §1

EPLC-272H = system: EPLC-272H
Method in brief: as §1

NCI-H460 = system: NCI-H460
Method in brief: as §1

COR-L 105 = system: COR-L 105
Method in brief: as §1

LU99A = system: LU99A
Method in brief: as §1

NCI-H1793 = system: NCI-H1793
Method in brief: as §1

SW 900 = system: SW 900
Method in brief: as §1

UMC-11 = system: UMC-11
Method in brief: as §1

HOP-62 = system: HOP-62
Method in brief: as §1

NCI-H358 = system: NCI-H358
Method in brief: as §1

NCI-H2009 = system: NCI-H2009
Method in brief: as §1

LXF-289 = system: LXF-289
Method in brief: as §1

NCI-H1666 = system: NCI-H1666
Method in brief: as §1

`COc1nc(C)cnc1NS(=O)(=O)c1cccnc1-c1ccc(-c2nnco2)cc1` [Zibotentan] + Cc1nc(Nc2ncc(C(=O)Nc3c(C)cccc3Cl)s2)cc(N2CCN(CCO)CC2)n1 [Dasatinib] (partner 0.075 µM) was tested, and the relative viability (NCI-H1792; first compound 0.08 µM) was 0.872, the relative viability (NCI-H1792; first compound 0.253 µM) was 0.664 and the relative viability (NCI-H1792; first compound 0.8 µM) was 0.635. It also gave a relative viability (NCI-H1792; first compound 2.53 µM) of 0.827, a relative viability (NCI-H1915; first compound 0.08 µM) of 0.382 and a relative viability (NCI-H1915; first compound 0.253 µM) of 0.29. The relative viability (NCI-H1915; first compound 0.8 µM) was 0.336, the relative viability (NCI-H1915; first compound 2.53 µM) was 0.29 and the relative viability (NCI-H2085; first compound 0.08 µM) was 0.24. It also gave a relative viability (NCI-H2085; first compound 0.253 µM) of 0.227, a relative viability (NCI-H2085; first compound 0.8 µM) of 0.211 and a relative viability (NCI-H2085; first compound 2.53 µM) of 0.213. The relative viability (NCI-H2170; first compound 0.08 µM) was 0.59, the relative viability (NCI-H2170; first compound 0.253 µM) was 0.612 and the relative viability (NCI-H2170; first compound 0.8 µM) was 0.52. For the same molecule, the relative viability (NCI-H2170; first compound 2.53 µM) was 0.469, the relative viability (NCI-H1944; first compound 0.08 µM) was 0.193 and the relative viability (NCI-H1944; first compound 0.253 µM) was 0.211. The relative viability (NCI-H1944; first compound 0.8 µM) was 0.221, the relative viability (NCI-H1944; first compound 2.53 µM) was 0.224 and the relative viability (HCC-366; first compound 0.08 µM) was 0.73. The relative viability (HCC-366; first compound 0.253 µM) was 0.584, the relative viability (HCC-366; first compound 0.8 µM) was 0.359 and the relative viability (HCC-366; first compound 2.53 µM) was 0.652. For the same molecule, the relative viability (LC-2-ad; first compound 0.08 µM) was 0.688, the relative viability (LC-2-ad; first compound 0.8 µM) was 0.625 and the relative viability (LC-2-ad; first compound 2.53 µM) was 0.511. For the same molecule, the relative viability (A-427; first compound 0.08 µM) was 0.908, the relative viability (A-427; first compound 0.253 µM) was 0.69 and the relative viability (A-427; first compound 0.8 µM) was 0.7. For the same molecule, the relative viability (A-427; first compound 2.53 µM) was 0.828, the relative viability (HCC-78; first compound 0.08 µM) was 0.513 and the relative viability (HCC-78; first compound 0.253 µM) was 0.313. The relative viability (HCC-78; first compound 0.8 µM) was 0.391, the relative viability (HCC-78; first compound 2.53 µM) was 0.309 and the relative viability (SK-LU-1; first compound 0.08 µM) was 0.17. For the same molecule, the relative viability (SK-LU-1; first compound 0.253 µM) was 0.172, the relative viability (SK-LU-1; first compound 0.8 µM) was 0.189 and the relative viability (SK-LU-1; first compound 2.53 µM) was 0.198. The relative viability (EPLC-272H; first compound 0.08 µM) was 0.375, the relative viability (EPLC-272H; first compound 0.253 µM) was 0.287 and the relative viability (EPLC-272H; first compound 0.8 µM) was 0.331. It also gave a relative viability (EPLC-272H; first compound 2.53 µM) of 0.33, a relative viability (NCI-H460; first compound 0.08 µM) of 0.559 and a relative viability (NCI-H460; first compound 0.253 µM) of 0.391. It also gave a relative viability (NCI-H460; first compound 0.8 µM) of 0.504, a relative viability (NCI-H460; first compound 2.53 µM) of 0.602 and a relative viability (COR-L 105; first compound 0.08 µM) of 0.32. For the same molecule, the relative viability (COR-L 105; first compound 0.253 µM) was 0.353, the relative viability (COR-L 105; first compound 0.8 µM) was 0.381 and the relative viability (COR-L 105; first compound 2.53 µM) was 0.405. It also gave a relative viability (LU99A; first compound 0.08 µM) of 0.712, a relative viability (LU99A; first compound 0.253 µM) of 0.694 and a relative viability (LU99A; first compound 0.8 µM) of 0.596. It also gave a relative viability (LU99A; first compound 2.53 µM) of 0.487, a relative viability (NCI-H1793; first compound 0.08 µM) of 0.345 and a relative viability (NCI-H1793; first compound 0.253 µM) of 0.363. It also gave a relative viability (NCI-H1793; first compound 0.8 µM) of 0.406, a relative viability (NCI-H1793; first compound 2.53 µM) of 0.379 and a relative viability (SW 900; first compound 0.08 µM) of 0.633. It also gave a relative viability (SW 900; first compound 0.253 µM) of 0.59, a relative viability (SW 900; first compound 0.8 µM) of 0.562 and a relative viability (SW 900; first compound 2.53 µM) of 0.911. For the same molecule, the relative viability (UMC-11; first compound 0.08 µM) was 0.394, the relative viability (UMC-11; first compound 0.253 µM) was 0.436 and the relative viability (UMC-11; first compound 0.8 µM) was 0.475. The relative viability (UMC-11; first compound 2.53 µM) was 0.469, the relative viability (HOP-62; first compound 0.08 µM) was 0.706 and the relative viability (HOP-62; first compound 0.253 µM) was 0.634. The relative viability (HOP-62; first compound 0.8 µM) was 0.719, the relative viability (HOP-62; first compound 2.53 µM) was 0.758 and the relative viability (NCI-H358; first compound 0.08 µM) was 0.175. The relative viability (NCI-H358; first compound 0.253 µM) was 0.152, the relative viability (NCI-H358; first compound 0.8 µM) was 0.151 and the relative viability (NCI-H358; first compound 2.53 µM) was 0.166. The relative viability (NCI-H2009; first compound 0.08 µM) was 0.287, the relative viability (NCI-H2009; first compound 0.253 µM) was 0.28 and the relative viability (NCI-H2009; first compound 0.8 µM) was 0.306. It also gave a relative viability (NCI-H2009; first compound 2.53 µM) of 0.292, a relative viability (LXF-289; first compound 0.08 µM) of 0.247 and a relative viability (LXF-289; first compound 0.253 µM) of 0.22. It also gave a relative viability (LXF-289; first compound 0.8 µM) of 0.206, a relative viability (LXF-289; first compound 2.53 µM) of 0.244 and a relative viability (NCI-H1666; first compound 0.08 µM) of 0.883. It also gave a relative viability (NCI-H1666; first compound 0.253 µM) of 0.706, a relative viability (NCI-H1666; first compound 0.8 µM) of 0.821 and a relative viability (NCI-H1666; first compound 2.53 µM) of 0.907.
